In ChEMBL document CHEMBL1157356, “Discovery of pyrrolopyridine-pyridone based inhibitors of Met kinase: synthesis, X-ray crystallographic analysis, and biological activities” (J Med Chem, 2008):

Assays:
[1] = target: Hepatocyte growth factor receptor (Homo sapiens, UniProt P08581); assay: Inhibition of MET
[2] = Antiproliferative activity against human GTL16 cells after 72 hrs by MTS assay; assay type: functional, cell-based; conditions: GTL 16, 72 h
NCI-N87 = assay: Antiproliferative activity against human N87 cells after 72 hrs by MTS assay; assay type: functional, cell-based; conditions: NCI-N87, 72 h
[3] = target: T1, Receptor-type tyrosine-protein kinase FLT3 (Homo sapiens, UniProt P36888); assay: Inhibition of Flt3
T1 sequence (P36888 whole entry): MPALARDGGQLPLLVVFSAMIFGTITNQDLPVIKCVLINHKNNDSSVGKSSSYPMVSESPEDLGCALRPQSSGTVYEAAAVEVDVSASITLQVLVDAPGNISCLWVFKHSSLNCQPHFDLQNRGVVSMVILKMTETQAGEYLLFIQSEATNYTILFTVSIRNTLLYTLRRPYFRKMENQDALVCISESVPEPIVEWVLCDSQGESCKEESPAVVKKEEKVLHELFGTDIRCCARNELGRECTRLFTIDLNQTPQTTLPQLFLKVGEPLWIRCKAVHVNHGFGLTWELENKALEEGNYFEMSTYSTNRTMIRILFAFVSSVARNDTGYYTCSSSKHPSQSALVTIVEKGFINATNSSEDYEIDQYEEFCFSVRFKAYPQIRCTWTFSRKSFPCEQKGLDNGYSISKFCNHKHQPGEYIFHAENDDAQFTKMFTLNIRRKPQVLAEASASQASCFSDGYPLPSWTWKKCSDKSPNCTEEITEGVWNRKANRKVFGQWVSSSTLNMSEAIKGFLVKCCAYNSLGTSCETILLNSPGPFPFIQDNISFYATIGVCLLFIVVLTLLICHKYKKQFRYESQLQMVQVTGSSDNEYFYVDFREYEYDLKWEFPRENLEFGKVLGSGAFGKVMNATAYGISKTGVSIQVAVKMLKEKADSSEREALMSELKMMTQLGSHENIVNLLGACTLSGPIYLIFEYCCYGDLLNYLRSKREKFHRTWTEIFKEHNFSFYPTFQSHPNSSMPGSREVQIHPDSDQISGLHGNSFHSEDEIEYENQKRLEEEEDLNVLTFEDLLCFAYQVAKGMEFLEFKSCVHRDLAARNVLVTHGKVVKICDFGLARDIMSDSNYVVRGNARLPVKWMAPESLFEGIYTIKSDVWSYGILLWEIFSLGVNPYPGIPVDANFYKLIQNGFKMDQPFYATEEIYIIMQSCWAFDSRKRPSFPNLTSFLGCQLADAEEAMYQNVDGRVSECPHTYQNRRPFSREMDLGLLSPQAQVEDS

[4] = target: Vascular endothelial growth factor receptor 2 (Homo sapiens, UniProt P35968); assay: Inhibition of VEGFR2
[5] = target: Mast/stem cell growth factor receptor Kit (Homo sapiens, UniProt P10721); assay: Inhibition of c-Kit
[6] = target: Cyclin-dependent kinase 2 (Homo sapiens, UniProt P24941); assay: Inhibition of CDK2/cyclin E
[7] = target: Protein kinase C alpha type (Homo sapiens, UniProt P17252); assay: Inhibition of PKCalpha
[8] = Inhibition of PKA
[9] = target: Insulin-like growth factor 1 receptor (Homo sapiens, UniProt P08069); assay: Inhibition of IGF1R
Sequence of Insulin-like growth factor 1 receptor (P08069 31-736 limits assumed): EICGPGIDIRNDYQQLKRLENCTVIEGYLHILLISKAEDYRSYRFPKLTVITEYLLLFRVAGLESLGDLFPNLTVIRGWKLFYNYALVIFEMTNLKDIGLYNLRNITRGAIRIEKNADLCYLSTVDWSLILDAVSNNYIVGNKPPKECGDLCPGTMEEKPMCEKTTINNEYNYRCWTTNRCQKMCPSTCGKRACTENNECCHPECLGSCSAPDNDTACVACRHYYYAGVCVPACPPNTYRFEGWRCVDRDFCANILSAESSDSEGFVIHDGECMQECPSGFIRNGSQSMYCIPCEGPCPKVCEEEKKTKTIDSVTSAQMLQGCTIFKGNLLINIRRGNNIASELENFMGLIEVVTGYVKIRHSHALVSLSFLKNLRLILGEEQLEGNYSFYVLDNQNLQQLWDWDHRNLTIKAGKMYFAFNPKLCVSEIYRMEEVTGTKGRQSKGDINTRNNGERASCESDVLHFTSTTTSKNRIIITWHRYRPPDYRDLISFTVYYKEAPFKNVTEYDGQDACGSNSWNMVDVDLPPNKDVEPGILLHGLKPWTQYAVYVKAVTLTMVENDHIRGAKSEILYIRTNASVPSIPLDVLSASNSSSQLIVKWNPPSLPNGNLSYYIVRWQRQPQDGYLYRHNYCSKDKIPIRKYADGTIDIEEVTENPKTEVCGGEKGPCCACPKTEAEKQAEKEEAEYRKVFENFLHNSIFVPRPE
Sequence of Insulin-like growth factor 1 receptor (P08069 741-1367 limits assumed): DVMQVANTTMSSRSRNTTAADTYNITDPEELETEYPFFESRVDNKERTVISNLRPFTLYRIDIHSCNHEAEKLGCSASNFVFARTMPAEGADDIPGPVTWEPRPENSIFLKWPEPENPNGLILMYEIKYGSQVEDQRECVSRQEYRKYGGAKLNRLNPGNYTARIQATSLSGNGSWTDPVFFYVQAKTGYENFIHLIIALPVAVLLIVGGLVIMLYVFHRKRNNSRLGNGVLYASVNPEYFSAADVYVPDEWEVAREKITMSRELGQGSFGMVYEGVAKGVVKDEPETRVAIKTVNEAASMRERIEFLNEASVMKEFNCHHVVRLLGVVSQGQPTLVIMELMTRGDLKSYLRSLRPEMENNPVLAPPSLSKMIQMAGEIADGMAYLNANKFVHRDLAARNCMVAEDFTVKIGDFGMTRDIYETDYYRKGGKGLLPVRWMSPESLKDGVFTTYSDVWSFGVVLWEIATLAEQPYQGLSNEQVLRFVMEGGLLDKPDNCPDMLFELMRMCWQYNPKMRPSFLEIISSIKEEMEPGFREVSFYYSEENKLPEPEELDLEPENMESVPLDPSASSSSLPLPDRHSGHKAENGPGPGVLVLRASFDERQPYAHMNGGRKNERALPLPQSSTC

Insulin receptor = Insulin receptor (Homo sapiens, UniProt P06213); assay: Inhibition of InsR
[10] = target: MAP kinase-activated protein kinase 2 (Homo sapiens, UniProt P49137); assay: Inhibition of MK2
Sequence of MAP kinase-activated protein kinase 2 (P49137 whole entry): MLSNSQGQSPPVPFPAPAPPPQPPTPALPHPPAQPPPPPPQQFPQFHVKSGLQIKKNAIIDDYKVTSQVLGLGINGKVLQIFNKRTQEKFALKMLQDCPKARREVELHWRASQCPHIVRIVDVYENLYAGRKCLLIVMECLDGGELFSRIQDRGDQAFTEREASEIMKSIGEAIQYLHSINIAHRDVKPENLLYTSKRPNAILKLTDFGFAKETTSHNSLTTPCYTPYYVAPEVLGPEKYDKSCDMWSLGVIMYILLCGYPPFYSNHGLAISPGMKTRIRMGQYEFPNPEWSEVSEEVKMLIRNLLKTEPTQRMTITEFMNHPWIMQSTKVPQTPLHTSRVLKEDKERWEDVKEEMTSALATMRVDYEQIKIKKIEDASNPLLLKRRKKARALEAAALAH

Liver microsomes = assay: Metabolic stability in human liver microsomes assessed as metabolic rate per mg of protein at 3 uM; assay type: ADME, Microsome
[11] = Metabolic stability in mouse liver microsomes assessed as metabolic rate per mg of protein at 3 uM; assay type: ADME, Microsome
[12] = AUC (0 to 24 hrs) in BALB/c mouse at 5 mg/kg, iv; assay type: ADME, organism-based; set-up: time < 24 hr, dose 5 mg/kg, route intravenous; conditions: plasma
[13] = Half life in BALB/c mouse at 5 mg/kg, iv; assay type: ADME, organism-based; set-up: dose 5 mg/kg, route intravenous; conditions: in vivo
[14] = Mean residence time in BALB/c mouse at 5 mg/kg, iv; assay type: ADME, organism-based; set-up: dose 5 mg/kg, route intravenous; conditions: in vivo
[15] = Clearance in BALB/c mouse at 5 mg/kg, iv; assay type: ADME, organism-based; set-up: dose 5 mg/kg, route intravenous; conditions: in vivo
[16] = Volume of distribution at steady state in BALB/c mouse at 5 mg/kg, iv; assay type: ADME, organism-based; set-up: dose 5 mg/kg, route intravenous; conditions: in vivo, read-out: Vdss
[17] = Cmax in BALB/c mouse at 10 mg/kg, po; assay type: ADME, organism-based; set-up: dose 10 mg/kg, route oral; conditions: in vivo
[18] = Tmax in BALB/c mouse at 10 mg/kg, po; assay type: ADME, organism-based; set-up: dose 10 mg/kg, route oral; conditions: in vivo
[19] = AUC (0 to 24 hrs) in BALB/c mouse at 10 mg/kg, po; assay type: ADME, organism-based; set-up: time < 24 hr, dose 10 mg/kg, route oral; conditions: plasma
[20] = Half life in BALB/c mouse at 10 mg/kg, po; assay type: ADME, organism-based; set-up: dose 10 mg/kg, route oral; conditions: in vivo
[21] = Mean residence time in BALB/c mouse at 10 mg/kg, po; assay type: ADME, organism-based; set-up: dose 10 mg/kg, route oral; conditions: in vivo
[22] = Oral bioavailability in BALB/c mouse at 10 mg/kg, po; assay type: ADME, organism-based; conditions: in vivo
Serum [23] = assay: Protein binding in human serum at 10 uM by equilibrium dialysis method; assay type: ADME, cell-free
Serum [24] = assay: Protein binding in mouse serum at 10 uM by equilibrium dialysis method; assay type: ADME, cell-free
[25] = Antitumor activity against human GTL16 cells xenografted po dosed BALB/c mouse administered once daily 14 days after tumor implantation; assay type: functional; conditions: GTL 16, po, 336 h, read-out: MED
[26] = Toxicity in human GTL16 cells xenografted BALB/c mouse assessed as maximum tolerated dose at 100 mg/kg, po qd administered 14 days after tumor implantation; assay type: organism-based; set-up: dose 100 mg/kg, route oral; conditions: in vivo
[27] = Antitumor activity against human GTL16 cells xenografted BALB/c mouse assessed as induction of complete tumor stasis at 25 mg/kg, po qd administered 14 days after tumor implantation; assay type: functional; conditions: GTL 16, 336 h, read-out: TGI
[28] = Antitumor activity against human GTL16 cells xenografted BALB/c mouse assessed as induction of tumor regression at 50 mg/kg, po qd administered 14 days after tumor implantation; assay type: functional; conditions: GTL 16, 336 h, read-out: TGI
[29] = target: Tyrosine-protein kinase Lck (Homo sapiens, UniProt P06239)
Sequence of Tyrosine-protein kinase Lck (P06239 whole entry): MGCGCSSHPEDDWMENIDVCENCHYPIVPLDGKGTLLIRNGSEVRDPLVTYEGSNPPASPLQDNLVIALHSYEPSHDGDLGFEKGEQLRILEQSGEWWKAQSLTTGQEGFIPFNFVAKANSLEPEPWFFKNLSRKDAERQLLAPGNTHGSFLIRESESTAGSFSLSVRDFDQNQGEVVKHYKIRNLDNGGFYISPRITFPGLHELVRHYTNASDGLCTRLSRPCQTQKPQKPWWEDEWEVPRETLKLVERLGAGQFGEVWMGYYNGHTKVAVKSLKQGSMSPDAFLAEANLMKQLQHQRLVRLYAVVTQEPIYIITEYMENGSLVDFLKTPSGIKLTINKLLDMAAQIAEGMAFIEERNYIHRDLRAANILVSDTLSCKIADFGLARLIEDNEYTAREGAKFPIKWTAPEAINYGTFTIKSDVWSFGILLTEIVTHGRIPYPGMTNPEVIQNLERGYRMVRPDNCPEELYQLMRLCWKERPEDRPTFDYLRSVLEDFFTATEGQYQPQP

[30] = Antitumor activity against human GTL16 cells xenografted BALB/c mouse assessed as at 12.5 mg/kg, po qd administered 14 days after tumor implantation; conditions: GTL 16, po, 336 h, read-out: TGI

Sequence of Hepatocyte growth factor receptor (P08581 whole entry): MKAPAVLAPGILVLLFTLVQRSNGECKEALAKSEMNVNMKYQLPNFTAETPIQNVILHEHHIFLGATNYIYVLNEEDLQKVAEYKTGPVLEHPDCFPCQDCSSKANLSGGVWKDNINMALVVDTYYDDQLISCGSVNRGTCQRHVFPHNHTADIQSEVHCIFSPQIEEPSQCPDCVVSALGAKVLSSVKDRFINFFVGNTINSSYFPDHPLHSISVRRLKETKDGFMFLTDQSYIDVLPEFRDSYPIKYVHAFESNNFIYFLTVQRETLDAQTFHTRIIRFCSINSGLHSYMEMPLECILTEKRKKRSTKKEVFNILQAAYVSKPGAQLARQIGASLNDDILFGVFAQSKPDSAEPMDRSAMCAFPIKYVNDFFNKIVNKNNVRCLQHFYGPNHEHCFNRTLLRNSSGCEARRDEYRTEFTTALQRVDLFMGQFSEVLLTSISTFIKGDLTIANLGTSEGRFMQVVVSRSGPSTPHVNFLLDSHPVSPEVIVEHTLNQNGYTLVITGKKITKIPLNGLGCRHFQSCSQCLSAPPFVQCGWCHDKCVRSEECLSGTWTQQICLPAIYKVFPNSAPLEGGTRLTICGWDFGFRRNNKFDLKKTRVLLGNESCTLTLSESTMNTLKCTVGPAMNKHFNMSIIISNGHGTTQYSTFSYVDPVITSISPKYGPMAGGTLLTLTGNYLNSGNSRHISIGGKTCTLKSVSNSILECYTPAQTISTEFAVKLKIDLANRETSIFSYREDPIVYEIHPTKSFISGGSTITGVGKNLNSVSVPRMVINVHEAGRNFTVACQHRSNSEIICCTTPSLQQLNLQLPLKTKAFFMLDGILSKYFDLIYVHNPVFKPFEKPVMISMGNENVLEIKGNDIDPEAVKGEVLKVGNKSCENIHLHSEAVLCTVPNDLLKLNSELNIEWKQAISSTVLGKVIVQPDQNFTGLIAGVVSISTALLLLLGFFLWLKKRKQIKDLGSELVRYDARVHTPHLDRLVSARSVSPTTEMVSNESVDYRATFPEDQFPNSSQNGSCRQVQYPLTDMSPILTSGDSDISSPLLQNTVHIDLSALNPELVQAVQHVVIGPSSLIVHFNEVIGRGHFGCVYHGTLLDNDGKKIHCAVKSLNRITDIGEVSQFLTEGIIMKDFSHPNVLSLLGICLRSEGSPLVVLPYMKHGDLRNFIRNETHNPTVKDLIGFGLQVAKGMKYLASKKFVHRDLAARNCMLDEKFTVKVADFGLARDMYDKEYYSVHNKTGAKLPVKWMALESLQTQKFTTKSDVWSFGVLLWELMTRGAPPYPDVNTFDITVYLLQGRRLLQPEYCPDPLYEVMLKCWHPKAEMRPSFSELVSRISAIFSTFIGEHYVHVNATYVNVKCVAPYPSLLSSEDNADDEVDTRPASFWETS

O=C(Nc1ccc(Oc2ccnc3[nH]ccc23)c(F)c1)c1cocc(-c2ccc(F)cc2)c1=O
IC50 [1]: 1400 nM | IC50 [2]: > 10000 nM

O=C(Nc1ccc(Oc2ccnc3[nH]ccc23)c(F)c1)c1cccn(-c2ccccc2)c1=O
IC50 [1]: 1.9 nM | IC50 [2]: 140 nM | IC50 (NCI-N87): > 5 µM

NC(=O)c1ccc(-n2cccc(C(=O)Nc3ccc(Oc4ccnc5[nH]ccc45)c(F)c3)c2=O)cc1
IC50 [1]: 1000 nM | IC50 [2]: > 5000 nM

CC(C)CCn1cccc(C(=O)Nc2ccc(Oc3ccnc4[nH]ccc34)c(F)c2)c1=O
IC50 [1]: 30 nM | IC50 [2]: 3700 nM | IC50 (NCI-N87): > 5 µM

O=C(Nc1ccc(Oc2ccnc3[nH]ccc23)c(F)c1)c1cccn(Cc2ccc(F)cc2)c1=O
IC50 [1]: 8.2 nM | IC50 [2]: 2100 nM | IC50 (NCI-N87): > 5 µM

O=C(Nc1ccc(Oc2ccnc3[nH]ccc23)c(F)c1)c1cccn(-c2ccccn2)c1=O
IC50 [1]: 10 nM | IC50 [2]: 970 nM | IC50 (NCI-N87): > 5 µM

O=C(Nc1ccc(Oc2ccnc3[nH]ccc23)c(F)c1)c1cncc(-c2ccc(F)cc2)c1O
IC50 [1]: 2.8 nM | IC50 [2]: 70 nM | IC50 (NCI-N87): 1.24 µM

Cn1cc(C(=O)Nc2ccc(Oc3ccnc4[nH]ccc34)c(F)c2)c(=O)c(-c2ccc(F)cc2)c1
IC50 [1]: 3.1 nM | IC50 [2]: 150 nM | IC50 (NCI-N87): 2.62 µM

O=C(Nc1ccc(Oc2ccnc3[nH]ccc23)c(F)c1)c1cn(C2CC2)cc(-c2ccc(F)cc2)c1=O
IC50 [1]: 3.4 nM | IC50 [2]: 60 nM | IC50 (NCI-N87): > 5 µM

O=C(Nc1ccc(Oc2ccnc3[nH]ccc23)c(F)c1)c1cccc(-c2ccccc2)[n+]1[O-]
IC50 [1]: 1.3 nM | IC50 [2]: 40 nM | IC50 (NCI-N87): > 5 µM

O=C(Nc1ccc(Oc2ccnc3[nH]ccc23)c(F)c1)c1cccc(-c2ccc(F)cc2)[n+]1[O-]
IC50 [1]: 1.8 nM | IC50 [2]: 40 nM | IC50 (NCI-N87): 4.9 µM

COc1ccc(-n2cc(C(=O)Nc3ccc(Oc4ccnc5[nH]ccc45)c(F)c3)c(=O)c(-c3ccc(F)cc3)c2)cc1F
IC50 [1]: 5 nM | IC50 [2]: 200 nM | IC50 (NCI-N87): > 5 µM

O=C(Nc1ccc(Oc2ccnc3[nH]ccc23)c(F)c1)c1cn(-c2ccc(Cl)c(F)c2)cc(-c2ccc(F)cc2)c1=O
IC50 [1]: 2.3 nM | IC50 [2]: 130 nM | IC50 (NCI-N87): > 5 µM

CC(C)(C)n1cccc(C(=O)Nc2ccc(Oc3ccnc4[nH]ccc34)c(F)c2)c1=O
IC50 [1]: 1000 nM

O=C(Nc1ccc(Oc2ccnc3[nH]ccc23)c(F)c1)c1cccn(C2CC2)c1=O
IC50 [1]: 1000 nM

O=C(Nc1ccc(Oc2ccnc3[nH]ccc23)c(F)c1)c1cccc(-c2ccccc2)n1
IC50 [1]: 470 nM

O=C(Nc1ccc(Oc2ccnc3[nH]ccc23)c(F)c1)c1cn(CCO)cc(-c2ccc(F)cc2)c1=O
IC50 [1]: 3.8 nM | IC50 [2]: 280 nM | IC50 (NCI-N87): > 5 µM

O=C(Nc1ccc(Oc2ccnc3[nH]ccc23)c(F)c1)c1cccn(-c2ccc(F)cc2)c1=O
IC50 (NCI-N87): > 5 µM | IC50 [3]: 4 nM | IC50 [4]: 27 nM | IC50 [5]: 610 nM | IC50 [6]: > 1000 nM | IC50 [7]: > 30 µM | IC50 [8]: > 30 µM | IC50 [9]: > 5 µM | IC50 (Insulin receptor): > 5 µM | IC50 [10]: > 10 µM | Stability (Liver microsomes): < 0.01 nM/min/mg | Stability [11]: 0.055 nM/min/mg | AUC(0-t) at 24 h [12]: 19.8 µM·h | half-life [13]: 150 min | MRT [14]: 3 h | clearance [15]: 9.2 mL/min/kg | Vd [16]: 1.6 L/kg | Cmax [17]: 11.5 µM | Tmax [18]: 30 min | AUC(0-t) at 24 h [19]: 50.2 µM·h | half-life [20]: 132 min | MRT [21]: 4.5 h | bioavailability [22]: 100% | Activity (Serum [23]): 99.9% | Activity (Serum [24]): 99.4% | minimal effective dose [25]: 12.5 mg/kg | MTD at 336 h [26]: 100 mg/kg | inhibition in vivo at 25 mg/kg [27]: 86% | inhibition in vivo at 50 mg/kg [28]: 110% | IC50 [29]: 290 nM | inhibition in vivo at 12.5 mg/kg [30]: 62%

O=C(Nc1ccc(Oc2ccnc3[nH]ccc23)c(F)c1)c1cccn(-c2cccnc2)c1=O
IC50 [1]: 70 nM | IC50 [2]: 4000 nM | IC50 (NCI-N87): > 5 µM
